Measured values from patent publication US20090149512A1, “Use of Ghrelin Antagonists to the Treatment of Certain CNS Diseases” (Novo Nordisk A/S, priority 2004, published 2009).

Test system: diabetic ob/ob mice
Experiment: Assessment of level of wakefulness/activity (locomotor activity, light-beam interruption method)
Type: in vivo
Conditions: 20 mg/kg i.p. in saline once daily for 14 days, male, 8 months old
Protocol: The effect of an administered substance (for example a ghrelin antagonist) on the level of wakefulness or activity in animal subjects (for example, mice) may be assessed by means of an activity test in which the primary measurement parameter is locomotor activity.
Baseline activity is determined for all the animals 1-2 days prior to administration of saline (placebo) or ghrelin antagonist. The animals are subsequently monitored, either acutely or at the end of a more sub-chronic or chronic treatment lasting several days or weeks, for behavioural sensitization. On testing days, the animals are allowed to acclimatize to the behavioural monitors for 30 minutes prior to data accumulation if the monitors in question are different from their “home” cages. Activity is recorded for at least 1 hour on each of the testing days (baseline and post-treatment test). In a suitable arrangement, transparent chambers of Plexiglas™ are equipped with aluminium frames on which are mounted infrared light emitters and detectors. The detectors are interfaced to a personal computer (PC). Behavioural or psychomotor activity is defined as the total number of light-beam interruptions recorded during each testing session. […]

CNC(=O)c1noc(C(Cc2ccccc2)N(C)C(=O)[C@@H](Cc2ccc3ccccc3c2)NC(=O)/C=C/C(C)(C)N)n1 (single isomer, unassigned) [D2]
behaviour of treated animals when observed: awake and interested in their environment | level of wakefulness/activity (locomotor activity) assessed using the light-beam interruption method (versus saline control): became surprisingly active and awake for the duration of the study
